Structures can show the parent of a compound that is named as a salt. Where two headings read alike, the source gives them in different places.
Key:
[1] = target: recombinant human SOS1 polypeptide (amino acids 560-1049) (Homo sapiens (Human), UniProt Q07889); assay: biochemical; assay type: binding
pERK in MKN1 cells = assay: cells; assay type: cell-based; conditions: Homo sapiens
[2] = system: pERK in NCI-H1435 cells (NF-1 mutant); assay: pERK inhibition in NF-1 mutant NCI-H1435 cells (Example F); assay type: cell-based; conditions: NCI-H1435, 1 h, read-out: IC50, pERK inhibition
Procedure: The formaldehyde was discarded from the plates and 150 μL of ice-cold methanol was added to permeabilize the cells for 10 minutes at −20° C. The methanol was discarded from each of the plates and any liquid remaining in the plate by tapping the plate against paper towels. […] The plates were incubated overnight at 4° C. on a shaker.
On Assay day 2, the primary antibody solution was removed. […] The secondary antibody solution as removed and each plate was washed with PBST 3× times. Any liquid remaining was discarded and the plate was imaged using the Licor Odyssey machine according to the manufacturer's instruction, using a set focus length at 3 mm and both 800 nm and 700 nm filters. The GAPDH normalized scan values for each well were divided by the average of vehicle wells to get the % of pERK inhibition. The IC50 values were then calculated with the Graph pad Prism software.

[3] = HTRF displacement, Cy5 labelled tracer, Morrison equation for competitive binding, read-out: Ki, Inhibition of Labeled Tracer Binding to SOS1
[4] = MKN-1, pERK inhibition, In-Cell Western, MKN1 or H358 cells (Table 24 does not say which), 0.5-1 hour incubation, read-out: IC50
[5] = read-out: Ki, Inhibition of Labeled Tracer Binding to SOS1
[6] = MKN-1, pERK inhibition, In-Cell Western, MKN1 or H358 cells (Table 24 does not say which), 0.5-1 hour incubation

recombinant human SOS1 polypeptide (amino acids 560-1049), sequence (Q07889 560-1049): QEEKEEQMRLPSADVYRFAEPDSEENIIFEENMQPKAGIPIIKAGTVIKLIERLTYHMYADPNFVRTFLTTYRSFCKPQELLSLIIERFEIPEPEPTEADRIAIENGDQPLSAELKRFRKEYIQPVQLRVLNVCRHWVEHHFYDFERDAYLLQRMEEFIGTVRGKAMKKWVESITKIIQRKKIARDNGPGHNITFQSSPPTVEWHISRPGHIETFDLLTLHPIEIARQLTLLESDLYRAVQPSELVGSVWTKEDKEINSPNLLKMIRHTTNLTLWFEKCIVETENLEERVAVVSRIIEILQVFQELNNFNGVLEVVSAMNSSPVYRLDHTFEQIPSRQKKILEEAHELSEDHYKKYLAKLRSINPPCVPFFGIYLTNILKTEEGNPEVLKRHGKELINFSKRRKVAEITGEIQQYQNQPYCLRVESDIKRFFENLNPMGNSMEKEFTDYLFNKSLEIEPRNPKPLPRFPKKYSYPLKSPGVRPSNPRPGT

Structure (SMILES)	Ki [1, 3] [nM]	IC50 (pERK in MKN1 cells; [4]) [nM]	IC50 [2] [nM]	further results
Cc1c([C@@H](C)Nc2nnc(C)c3ccc(N4CCC(N(C)C)CC4)cc23)cccc1C(F)(F)F [Example 10-8, (R)-7-(4-(dimethylamino)piperidin-1-yl)-4-methyl-N-(1-(2-methyl-3-(trifluoromethyl)phenyl)ethyl)phthalazin-1-amine]	0.09	34	94	
CNCc1ccccc1-c1ccc([C@@H](C)Nc2nnc(C)c3ccc(N4CCOCC4)cc23)s1 [Example 6-3, (R)-4-methyl-N-(1-(5-(2-((methylamino)methyl)phenyl)thiophen-2-yl)ethyl)-7-morpholinophthalazin-1-amine]	0.02	12	25	
Cc1c([C@@H](C)Nc2nnc(C)c3ccc(N4CCN(C(=O)C5CCOCC5)CC4)cc23)cccc1C(F)(F)F [Example 11-2, (R)-(4-(1-methyl-4-((1-(2-methyl-3-(trifluoromethyl)phenyl)ethyl)amino)phthalazin-6-yl)piperazin-1-yl)(tetrahydro-2H-pyran-4-yl)methanone]	< 0.01	27	17	
Cc1nnc(N[C@H](C)c2cc(N)cc(C(F)(F)F)c2)c2cc(N3CCOCC3)ccc12 [Example 6-5, (R)-N-(1-(3-amino-5-(trifluoromethyl)phenyl)ethyl)-4-methyl-7-morpholinophthalazin-1-amine]	0.12	10	9	
Cc1c([C@@H](C)Nc2nnc(C)c3cnc(N4CCNCC4)cc23)cccc1C(F)(F)F [Example 6-9, (R)-4-methyl-N-(1-(2-methyl-3-(trifluoromethyl)phenyl)ethyl)-7-(piperazin-1-yl)pyrido[3,4-d]pyridazin-1-amine]			52	
Cc1c([C@@H](C)Nc2nnc(C)c3ccc(N4CCOC[C@@H]4C)cc23)cccc1C(F)(F)F [Example 10-6, 4-methyl-N-((R)-1-(2-methyl-3-(trifluoromethyl)phenyl)ethyl)-7-((S)-3-methylmorpholino)phthalazin-1-amine]	0.64	21	75	
Cc1c([C@@H](C)Nc2nnc(C)c3ccc(OC4CNC4)cc23)cccc1C(F)(F)F [Example 7-4, (R)-7-(azetidin-3-yloxy)-4-methyl-N-(1-(2-methyl-3-(trifluoromethyl)phenyl)ethyl)phthalazin-1-amine]	0.47	14	83	
Cc1c(C(F)F)cccc1[C@@H](C)Nc1nnc(C)c2ccc(N3CCNCC3)cc12 [Example 10-4, (R)-N-(1-(3-(difluoromethyl)-2-methylphenyl)ethyl)-4-methyl-7-(piperazin-1-yl)phthalazin-1-amine]	0.08	14	33	
CNCc1c(F)cccc1-c1ccc([C@@H](C)Nc2nnc(C)c3ccc(N4CCOCC4)cc23)s1 [Example 6-6, (R)-N-(1-(5-(3-fluoro-2-((methylamino)methyl)phenyl)thiophen-2-yl)ethyl)-4-methyl-7-morpholinophthalazin-1-amine]	0.11	40	29	
Cc1c([C@@H](C)Nc2nnc(C)c3ccc(N4CCC(C)(N)CC4)cc23)cccc1C(F)(F)F [Example 10-9, (R)-7-(4-amino-4-methylpiperidin-1-yl)-4-methyl-N-(1-(2-methyl-3-(trifluoromethyl)phenyl)ethyl)phthalazin-1-amine]	0.05	54	152	
Cc1c([C@@H](C)Nc2nnc(C)c3ccc(N4CCN(c5cnn(C)c5)CC4)cc23)cccc1C(F)(F)F [Example 10-10, (R)-4-methyl-7-(4-(1-methyl-1H-pyrazol-4-yl)piperazin-1-yl)-N-(1-(2-methyl-3-(trifluoromethyl)phenyl)ethyl)phthalazin-1-amine]	0.01	17	15	
Cc1c([C@@H](C)Nc2nnc(C)c3cnc(N4CCOCC4)cc23)cccc1C(F)(F)F [Example 6-12, (R)-4-methyl-N-(1-(2-methyl-3-(trifluoromethyl)phenyl)ethyl)-7-morpholinopyrido[3,4-d]pyridazin-1-amine]			63	
Cc1c([C@@H](C)Nc2nnc(C)c3ccc(N4CCN(C(=O)C5(C(F)(F)F)CC5)CC4)cc23)cccc1C(F)(F)F [Example 11-3, (R)-(4-(1-methyl-4-((1-(2-methyl-3-(trifluoromethyl)phenyl)ethyl)amino)phthalazin-6-yl)piperazin-1-yl)(1-(trifluoromethyl)cyclopropyl)methanone]	< 0.01	48	62	
Cc1c(C(F)F)cccc1[C@@H](C)Nc1nnc(C)c2cnc(N3CCN(c4cnn(C)c4)CC3)cc12 [Example 12-59]	0.47	19		
Cc1c([C@@H](C)Nc2nnc(CN(C)C)c3ccc(N4CCOCC4)cc23)cccc1C(F)(F)F [Example 14-1, (R)-4-((dimethylamino)methyl)-N-(1-(2-methyl-3-(trifluoromethyl)phenyl)ethyl)-7-morpholinophthalazin-1-amine]				Ki [1, 5]: 8.97 nM; IC50 (pERK in MKN1 cells; [6]): 68 nM
Cc1nnc(N[C@H](C)c2cccc(F)c2Cl)c2cc(N3CC(C)(O)C3)ncc12 [Example 12-80]	37.4	295		
Cc1c(C#N)cccc1[C@@H](C)Nc1nnc(C)c2cc(F)c(N3CCNCC3)cc12 [Example 18-4, (R)-3-(1-((6-fluoro-4-methyl-7-(piperazin-1-yl)phthalazin-1-yl)amino)ethyl)-2-methylbenzonitrile]	1.64	41		
COCCN1C[C@H]2CC[C@@H]1CN2c1cc2c(N[C@H](C)c3cccc(C#N)c3C)nnc(C)c2cn1 [Example 12-70]	0.68	13		
Cc1c(C#N)cccc1[C@@H](C)Nc1nnc(C)c2cnc(N3CC4(CCN(C)C4=O)C3)cc12 [Example 12-35]	3.78	35		
COc1c(C#N)cccc1[C@@H](C)Nc1nnc(C)c2cnc(N3CCOCC3)cc12 [Example 17-1, (R)-2-methoxy-3-(1-((4-methyl-7-morpholinopyrido[3,4-d]pyridazin-1-yl)amino)ethyl)benzonitrile]				Ki [1]: 4.33 nM; IC50 (pERK in MKN1 cells; [6]): 30 nM
Cc1c(C#N)cccc1[C@@H](C)Nc1nnc(C)c2ccc(N3CCC(N(C)C)CC3)cc12 [Example 10-57, (R)-3-(1-((7-(4-(dimethylamino)piperidin-1-yl)-4-methylphthalazin-1-yl)amino)ethyl)-2-methylbenzonitrile Formate salt]				Ki [1, 5]: 0.75 nM; IC50 (pERK in MKN1 cells; MKN-1): 46 nM
Cc1nnc(N[C@H](C)c2cc(N)cc(C(F)(F)F)n2)c2cc(N3CC4CC(C3)O4)ccc12 [Example 16-4, N-((R)-1-(4-amino-6-(trifluoromethyl)pyridin-2-yl)ethyl)-7-(6-oxa-3-azabicyclo[3.1.1]heptan-3-yl)-4-methylphthalazin-1-amine]	10.4	371		
Cc1c(C#N)cccc1[C@@H](C)Nc1nnc(C)c2cnc(N3CC(C)(N(C)C)C3)cc12 [Example 12-43]	3.38	44		
Cc1c([C@@H](C)Nc2nncc3ccc(N4CCn5ncnc5C4)cc23)cccc1C(F)(F)F [Example 1-25, (R)-7-(5,6-dihydro-[1,2,4]triazolo[1,5-a]pyrazin-7(8H)-yl)-N-(1-(2-methyl-3-(trifluoromethyl)phenyl)ethyl)phthalazin-1-amine]	0.95	47		
